Like-named read-outs stand apart in the source and are kept apart here.
Columns and labels:
Type in all cases: in vivo
[1] = tested on: velvetleaf (Abutilon theophrasti); assay: Test C pre-/postemergence greenhouse test, plant response rating 0-100; settings: Abutilon theophrasti; for pest or weed control at 62 g/ha: 62 g ai/ha; for pest or weed control at 125 g/ha: 125 g ai/ha; for pest or weed control at 250 g/ha: 250 g ai/ha
Procedure, shortened: (§1)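 Seeds were sown in a loam soil–sand blend and sprayed preemergence with test chemicals in a non-phytotoxic solvent mixture containing surfactant; postemergence plants in peat/vermiculite medium were treated at 2–18 cm (1- to 4-leaf stage). After 13 to 15 days in the greenhouse, injury was rated visually against untreated controls.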

[2] = tested on: corn (Zea mays); assay: as above; settings: Zea mays; for Corn plant response rating (crop injury, 0 = no effect, 100 = complete kill) at 250 g/ha: 250 g ai/ha
Procedure, shortened: as §1

[3] = tested on: large (Lg) crabgrass (Digitaria sanguinalis); assay: as above; settings: Digitaria sanguinalis; for pest or weed control at 62 g/ha: 62 g ai/ha; for pest or weed control at 125 g/ha: 125 g ai/ha; for pest or weed control at 250 g/ha: 250 g ai/ha
Procedure, shortened: as §1

[4] = tested on: pigweed (Amaranthus retroflexus); assay: as above; settings: Amaranthus retroflexus; for pest or weed control at 62 g/ha: 62 g ai/ha; for pest or weed control at 125 g/ha: 125 g ai/ha; for pest or weed control at 250 g/ha: 250 g ai/ha
Procedure, shortened: as §1

[5] = tested on: Italian ryegrass (Lolium multiflorum); assay: as above; settings: Lolium multiflorum; for pest or weed control at 62 g/ha: 62 g ai/ha; for pest or weed control at 125 g/ha: 125 g ai/ha; for pest or weed control at 250 g/ha: 250 g ai/ha
Procedure, shortened: as §1

[6] = tested on: blackgrass (Alopecurus myosuroides); assay: as above; settings: Alopecurus myosuroides; for pest or weed control at 62 g/ha: 62 g ai/ha; for pest or weed control at 125 g/ha: 125 g ai/ha; for pest or weed control at 250 g/ha: 250 g ai/ha
Procedure, shortened: as §1

[7] = tested on: soybean (Glycine max); assay: as above; settings: Glycine max; for plant injury at 62 g/ha: 62 g ai/ha; for plant injury at 125 g/ha: 125 g ai/ha; for plant injury at 250 g/ha: 250 g ai/ha
Procedure, shortened: as §1

[8] = tested on: galium (catchweed bedstraw, Galium aparine); assay: as above; settings: Galium; for pest or weed control at 62 g/ha: 62 g ai/ha; for pest or weed control at 125 g/ha: 125 g ai/ha; for pest or weed control at 250 g/ha: 250 g ai/ha
Procedure, shortened: as §1

[9] = tested on: morningglory (Ipomoea coccinea); assay: as above; settings: Ipomoea; for pest or weed control at 62 g/ha: 62 g ai/ha; for pest or weed control at 125 g/ha: 125 g ai/ha; for pest or weed control at 250 g/ha: 250 g ai/ha
Procedure, shortened: as §1

[10] = tested on: ragweed (common ragweed, Ambrosia elatior); assay: as above; settings: Ambrosia artemisiifolia; for pest or weed control at 62 g/ha: 62 g ai/ha; for pest or weed control at 250 g/ha: 250 g ai/ha
Procedure, shortened: as §1

[11] = tested on: yellow nutsedge (Cyperus esculentus); assay: as above; settings: Cyperus; for pest or weed control at 62 g/ha: 62 g ai/ha; for pest or weed control at 125 g/ha: 125 g ai/ha; for pest or weed control at 250 g/ha: 250 g ai/ha
Procedure, shortened: as §1

[12] = tested on: lambsquarters (Chenopodium album); assay: as above; settings: Chenopodium album; for pest or weed control at 62 g/ha: 62 g ai/ha; for pest or weed control at 125 g/ha: 125 g ai/ha; for pest or weed control at 250 g/ha: 250 g ai/ha
Procedure, shortened: as §1

[13] = tested on: bermudagrass (Cynodon dactylon); assay: Test C postemergence greenhouse test, plant response rating 0-100; settings: for Plant response rating, Bermudagrass: scale 0 to 100
Procedure, shortened: (§2)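 Postemergence spray of formulated test chemicals on plants 2 to 18 cm tall (1- to 4-leaf stage) grown in peat/vermiculite medium. Greenhouse hold 13 to 15 days, then visual comparison with untreated controls on a 0-100 scale (0 no effect, 100 complete control); dash means no test result.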

[14] = tested on: goosegrass (Eleusine indica); assay: as above
Procedure, shortened: as §2

[15] = post-emergence, Postemergence, read-out: Plant response rating (0 to 100), Velvetleaf
[16] = post-emergence, Postemergence, scale 0 to 100
[17] = pre-emergence, Preemergence, read-out: Plant response rating, Velvetleaf
[18] = pre-emergence, Preemergence, 500 g ai/ha
[19] = post-emergence, Postemergence, read-out: Plant response rating (0 to 100), Crabgrass, Large
[20] = pre-emergence, Preemergence, read-out: Plant response rating, Crabgrass, Large
[21] = post-emergence, Postemergence, read-out: Plant response rating (0 to 100), Pigweed
[22] = pre-emergence, Preemergence, read-out: Plant response rating, Pigweed
[23] = post-emergence, Postemergence, read-out: Plant response rating (0 to 100), Ryegrass, Italian
[24] = pre-emergence, Preemergence, read-out: Plant response rating, Ryegrass, Italian
[25] = pre-emergence, Preemergence, read-out: Plant response rating, Blackgrass
[26] = post-emergence, Postemergence, read-out: Plant response rating (0 to 100), Soybean
[27] = pre-emergence, Preemergence, read-out: Plant response rating, Soybean
[28] = post-emergence, Postemergence, read-out: Plant response rating (0 to 100), Galium
[29] = pre-emergence, Preemergence, read-out: Plant response rating, Galium
[30] = post-emergence, Postemergence, read-out: Plant response rating (0 to 100), Morningglory
[31] = pre-emergence, Preemergence, read-out: Plant response rating, Morningglory
[32] = post-emergence, Postemergence, read-out: Plant response rating (0 to 100), Nutsedge, Yellow
[33] = pre-emergence, Preemergence, read-out: Plant response rating, Nutsedge, Yellow
[34] = post-emergence, Postemergence, read-out: Plant response rating (0 to 100), Lambsquarters
[35] = pre-emergence, Preemergence, read-out: Plant response rating, Lambsquarters

Clc1cc(Cl)cc(-c2n[nH]cc2C(=NN2CCCC2)c2ccccc2)c1 [Compound 30, N-[[3-(3,5-dichlorophenyl)-1H-pyrazol-4-yl]phenylmethylene]-1-pyrrolidinamine]
pest or weed control at 62 g/ha [1, 15]: 85%
pest or weed control at 125 g/ha [1, 15]: 85%
pest or weed control at 250 g/ha [1, 16]: 98%
pest or weed control at 62 g/ha [1, 17]: 65%
pest or weed control at 125 g/ha [1, 17]: 70%
pest or weed control at 250 g/ha ([1]; pre-emergence, Preemergence): 75%
pest or weed control at 500 g/ha [1, 18]: 100%
plant injury at 31 g/ha ([2]; post-emergence, Postemergence, 31 g ai/ha): 0%
plant injury at 62 g/ha ([2]; post-emergence, Postemergence, 62 g ai/ha): 0%
plant injury at 125 g/ha ([2]; post-emergence, Postemergence, 125 g ai/ha): 0%
Corn plant response rating (crop injury, 0 = no effect, 100 = complete kill) at 250 g/ha [2, 16]: 0%
Corn plant response rating (crop injury, 0 = no effect, 100 = complete kill) at 62 g/ha ([2]; pre-emergence, Preemergence, 62 g ai/ha): 0%
Corn plant response rating (crop injury, 0 = no effect, 100 = complete kill) at 125 g/ha ([2]; pre-emergence, Preemergence, 125 g ai/ha): 0%
Corn plant response rating (crop injury, 0 = no effect, 100 = complete kill) at 250 g/ha ([2]; pre-emergence, Preemergence): 0%
Corn plant response rating (crop injury, 0 = no effect, 100 = complete kill) at 500 g/ha [2, 18]: 0%
pest or weed control at 31 g/ha ([3]; post-emergence, Postemergence, 31 g ai/ha, read-out: Plant response rating (0 to 100), Crabgrass, Large): 0%
pest or weed control at 62 g/ha [3, 19]: 0%
pest or weed control at 125 g/ha [3, 19]: 0%
pest or weed control at 250 g/ha [3, 16]: 0%
pest or weed control at 62 g/ha [3, 20]: 0%
pest or weed control at 125 g/ha [3, 20]: 0%
pest or weed control at 250 g/ha ([3]; pre-emergence, Preemergence): 0%
pest or weed control at 500 g/ha [3, 18]: 0%
pest or weed control at 62 g/ha [4, 21]: 100%
pest or weed control at 125 g/ha [4, 21]: 100%
pest or weed control at 250 g/ha [4, 16]: 100%
pest or weed control at 62 g/ha [4, 22]: 60%
pest or weed control at 125 g/ha [4, 22]: 98%
pest or weed control at 250 g/ha ([4]; pre-emergence, Preemergence): 100%
pest or weed control at 500 g/ha [4, 18]: 100%
pest or weed control at 62 g/ha [5, 23]: 0%
pest or weed control at 125 g/ha [5, 23]: 0%
pest or weed control at 250 g/ha [5, 16]: 0%
pest or weed control at 62 g/ha [5, 24]: 0%
pest or weed control at 125 g/ha [5, 24]: 0%
pest or weed control at 250 g/ha ([5]; pre-emergence, Preemergence): 0%
pest or weed control at 500 g/ha [5, 18]: 0%
pest or weed control at 31 g/ha ([6]; post-emergence, Postemergence, 31 g ai/ha, read-out: Plant response rating (0 to 100), Blackgrass): 0%
pest or weed control at 62 g/ha ([6]; post-emergence, Postemergence, read-out: Plant response rating (0 to 100), Blackgrass): 0%
pest or weed control at 125 g/ha ([6]; post-emergence, Postemergence, scale 0 to 100, read-out: Plant response rating, Blackgrass): 0%
pest or weed control at 250 g/ha [6, 16]: 0%
pest or weed control at 62 g/ha [6, 25]: 0%
pest or weed control at 125 g/ha [6, 25]: 0%
pest or weed control at 250 g/ha ([6]; pre-emergence, Preemergence): 0%
pest or weed control at 500 g/ha [6, 18]: 0%
plant injury at 62 g/ha [7, 26]: 0%
plant injury at 125 g/ha [7, 26]: 0%
plant injury at 250 g/ha [7, 16]: 0%
plant injury at 62 g/ha [7, 27]: 0%
plant injury at 125 g/ha [7, 27]: 0%
plant injury at 250 g/ha ([7]; pre-emergence, Preemergence): 0%
plant injury at 500 g/ha [7, 18]: 0%
pest or weed control at 31 g/ha ([8]; post-emergence, Postemergence, 31 g ai/ha, read-out: Plant response rating (0 to 100), Galium): 0%
pest or weed control at 62 g/ha [8, 28]: 0%
pest or weed control at 125 g/ha [8, 28]: 5%
pest or weed control at 250 g/ha [8, 16]: 5%
pest or weed control at 62 g/ha [8, 29]: 0%
pest or weed control at 125 g/ha [8, 29]: 0%
pest or weed control at 250 g/ha ([8]; pre-emergence, Preemergence): 5%
pest or weed control at 500 g/ha [8, 18]: 10%
pest or weed control at 62 g/ha [9, 30]: 0%
pest or weed control at 125 g/ha [9, 30]: 0%
pest or weed control at 250 g/ha [9, 16]: 0%
pest or weed control at 62 g/ha [9, 31]: 10%
pest or weed control at 125 g/ha [9, 31]: 15%
pest or weed control at 250 g/ha ([9]; pre-emergence, Preemergence): 15%
pest or weed control at 500 g/ha [9, 18]: 15%
pest or weed control at 62 g/ha ([10]; post-emergence, Postemergence, read-out: Plant response rating (0 to 100), Ragweed): 20%
pest or weed control at 125 g/ha ([10]; post-emergence, Postemergence, 125 g ai/ha, read-out: Plant response rating (0 to 100), Ragweed): 35%
pest or weed control at 250 g/ha [10, 16]: 90%
pest or weed control at 62 g/ha ([10]; pre-emergence, Preemergence, read-out: Plant response rating, Ragweed): 50%
pest or weed control at 250 g/ha ([10]; pre-emergence, Preemergence): 75%
pest or weed control at 500 g/ha [10, 18]: 100%
pest or weed control at 62 g/ha [11, 32]: 0%
pest or weed control at 125 g/ha [11, 32]: 0%
pest or weed control at 250 g/ha [11, 16]: 0%
pest or weed control at 62 g/ha [11, 33]: 0%
pest or weed control at 125 g/ha [11, 33]: 0%
pest or weed control at 250 g/ha ([11]; pre-emergence, Preemergence): 0%
pest or weed control at 500 g/ha [11, 18]: 0%
pest or weed control at 62 g/ha [12, 34]: 60%
pest or weed control at 125 g/ha [12, 34]: 80%
pest or weed control at 250 g/ha [12, 16]: 100%
pest or weed control at 62 g/ha [12, 35]: 100%
pest or weed control at 125 g/ha [12, 35]: 100%
pest or weed control at 250 g/ha ([12]; pre-emergence, Preemergence): 100%
pest or weed control at 500 g/ha [12, 18]: 100%
Plant response rating (0 to 100), Bermudagrass ([13]; 31 g ai/ha): 0
Plant response rating (0 to 100), Bermudagrass ([13]; 62 g ai/ha): 0
Plant response rating, Bermudagrass ([13]; 125 g ai/ha): 0
Plant response rating, Bermudagrass ([13]; 250 g ai/ha): 0
Plant response rating (0 to 100), Goosegrass ([14]; 31 g ai/ha): 0
Plant response rating (0 to 100), Goosegrass ([14]; 62 g ai/ha): 0
Plant response rating (0 to 100), Goosegrass ([14]; 125 g ai/ha): 0
Plant response rating, Goosegrass ([14]; 250 g ai/ha, scale 0 to 100): 0

— patent publication US10167262B2, “Herbicidal substituted 3-arylpyrazoles” (FMC CORPORATION, priority 2014, dated 2019)
